In US7994185B2, “Benzene sulfonamide thiazole and oxazole compounds” (Glaxo Smith Kline LLC, priority 2008, dated 2011):
Counter-ions that a name gives are not always drawn. Like-named read-outs stand apart in the source and are kept apart here.

Assays:
[1] = test system: Human melanoma cancer cells (SK-MEL-28); assay: Cell growth inhibition assay (CellTiter-Glo), SK-MEL-28; assay type: cell-based
[2] = test system: Human colon tumor cells (Colo205); assay: Cell growth inhibition assay (CellTiter-Glo), Colo205; assay type: cell-based
Method: Human colon tumor cells (Colo205) were cultured in RPMI (Mediatech 50-020-PB) containing 10% FBS and 1% penicillin-streptomycin.
The next day, compounds were diluted as follow: For 96-well assays, 13.5 μL of compound in DMSO were diluted using nine (9) serial 1:3 dilutions of 4.5 μL in 9 μL of DMSO. Medium (270 μL/well of RPMI with 10% FBS and 1% penicillin-streptomycin) was added to the plates. Aliquots (7 μL) were added to cells in the final assay giving a final DMSO concentration of 0.2%. For 384-well assays, 15 μL of compound in DMSO were diluted using nine (9) serial 1:3 dilutions of 5 μL in 10 μL of DMSO, followed by a further dilution of 5 μL of compound with 95 μL of medium, of which 2 μL were added to cells in the final assay giving a final DMSO concentration of 0.2%. Cells were incubated at 37° C., 5% CO2 for 3 days.
Total ATP was measured (as a surrogate estimate of cell number) using CellTiter-Glo® reagent (Promega G7571). Briefly, plates were removed from the incubator and allowed to equilibrate to room temperature for 30 minutes. CellTiter-Glo® (25 μL or 55 μL for 384-well or 96-well assays, respectively) reagent was added to each well and plates were shaken on an orbital plate shaker for 2 minutes. Plates were incubated without shaking for a further 30 minutes and read on an LJL Analyst GT reader in luminometer mode with an integration time of 0.5 seconds per well. Percent inhibition of cell growth was calculated relative to DMSO vehicle-treated control wells.

[3] = biological target: T1, BRAFV600E full-length (amino acids 2-766) (Homo sapiens, UniProt P15056, V600E); assay: B-Raf Accelerated MEK ATPase assay (BRAMA); assay type: biochemical
T1 construct: His6-tagged BRAFV600E full-length (amino acids 2-766); His6; made in house; host or cells: baculovirus expression system (insect cells)
T1 sequence (P15056 2-766 V600E): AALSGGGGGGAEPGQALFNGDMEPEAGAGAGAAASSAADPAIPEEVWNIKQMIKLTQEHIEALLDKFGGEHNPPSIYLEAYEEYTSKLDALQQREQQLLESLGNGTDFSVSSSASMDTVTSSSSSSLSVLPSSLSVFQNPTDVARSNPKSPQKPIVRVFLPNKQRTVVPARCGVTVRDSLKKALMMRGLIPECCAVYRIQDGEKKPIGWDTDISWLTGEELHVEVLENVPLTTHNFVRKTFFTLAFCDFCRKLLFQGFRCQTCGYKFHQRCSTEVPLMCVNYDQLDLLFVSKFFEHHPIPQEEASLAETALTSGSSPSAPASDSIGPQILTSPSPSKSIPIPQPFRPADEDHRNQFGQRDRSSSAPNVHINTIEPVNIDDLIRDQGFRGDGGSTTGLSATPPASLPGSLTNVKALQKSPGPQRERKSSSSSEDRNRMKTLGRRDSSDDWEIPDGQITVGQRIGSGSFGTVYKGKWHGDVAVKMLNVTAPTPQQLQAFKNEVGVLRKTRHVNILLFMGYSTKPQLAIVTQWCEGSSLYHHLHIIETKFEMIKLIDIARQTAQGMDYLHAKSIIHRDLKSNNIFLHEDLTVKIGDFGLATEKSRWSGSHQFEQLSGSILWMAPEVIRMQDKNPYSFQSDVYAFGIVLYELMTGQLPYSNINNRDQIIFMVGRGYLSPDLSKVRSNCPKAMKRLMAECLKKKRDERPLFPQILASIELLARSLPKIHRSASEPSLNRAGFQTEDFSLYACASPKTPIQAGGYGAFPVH
Procedure, shortened: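 Coupled-enzyme readout: ADP generated by MEK-mediated ATP hydrolysis, uncoupled from ERK phosphorylation, is linked to NADH oxidation through pyruvate kinase and lactate dehydrogenase.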

[4] = SK-MEL-28, Table 3b, later runs, average for the one or more runs, categorized, read-out: IC50 for SK-MEL-28
[5] = COLO 205, Table 2b, later runs, average for the one or more runs, categorized, read-out: IC50 for Colo205
[6] = B-Raf pIC50, Table 1b, later runs, average pIC50 for the one or more runs, categorized
[7] = SK-MEL-28, 72 h, Table 3a, 3 days incubation, read-out: Activity in SK-MEL-28 Tumor Cells
[8] = COLO 205, 72 h, Table 2a, 3 days incubation, read-out: Activity in Colo205 Tumor Cells
[9] = B-Raf Activity, Table 1a, highest pIC50 for the one or more runs, categorized
[10] = Table 1b, later runs, average pIC50 for the one or more runs, categorized, read-out: B-Raf pIC50 (converted)

Row | Structure (SMILES) | IC50 [1, 4] | IC50 [2, 5] | IC50 [3, 6] | IC50 [1, 7] | IC50 [2, 8] | IC50 [3, 9] | IC50 [3, 10] | IC50 [3]
1 | Nc1nccc(-c2sc(C3CCOCC3)nc2-c2cccc(NS(=O)(=O)c3cc(F)ccc3F)c2Cl)n1 [Example 242, N-{3-[5-(2-amino-4-pyrimidinyl)-2-(tetrahydro-2H-pyran-4-yl)-1,3-thiazol-4-yl]-2-chlorophenyl}-2,5-difluorobenzenesulfonamide] | < 100 nM | < 100 nM | ≤ 3.16 nM |  |  |  |  | 
2 | CC(C)c1nc(-c2cccc(NS(=O)(=O)c3cccc(F)c3)c2)c(-c2ccnc(NCC(=O)O)n2)s1 [Example 85, N-{4-[4-(3-{[(3-Fluorophenyl)sulfonyl]amino}phenyl)-2-(1-methylethyl)-1,3-thiazol-5-yl]-2-pyrimidinyl}glycine] |  |  | 31.6 to 1000 nM | > 1000 nM | > 1000 nM | 100 to 1000 nM |  | 
3 | CC(C)c1nc(-c2ccc(F)c(NS(=O)(=O)c3cc(F)ccc3F)c2)c(-c2ccnc(NC3CCOCC3)n2)s1 [Example 76, 2,5-Difluoro-N-(2-fluoro-5-{2-(1-methylethyl)-5-[2-(tetrahydro-2H-pyran-4-ylamino)-4-pyrimidinyl]-1,3-thiazol-4-yl}phenyl)benzenesulfonamide] | 100 to 1000 nM | 100 to 1000 nM |  | 100 to 1000 nM | 100 to 1000 nM | < 100 nM | 3.16 to 31.6 nM | 
4 | CC(=O)NCCNc1nccc(-c2sc(C(C)C)nc2-c2cccc(NS(=O)(=O)c3cc(F)ccc3F)c2F)n1 [Example 187] | < 100 nM | 1000 to 10000 nM | ≤ 3.16 nM | < 100 nM | < 100 nM | < 100 nM |  | 
5 | COc1ccc(F)cc1S(=O)(=O)Nc1cccc(-c2nc(C(C)C)sc2-c2ccnc(NCCS(C)(=O)=O)n2)c1 [Example 149] | 100 to 1000 nM | 100 to 1000 nM | 31.6 to 1000 nM | 100 to 1000 nM | 100 to 1000 nM | < 100 nM |  | 
6 | CC(C)(C)c1nc(-c2cccc(NS(=O)(=O)c3ccco3)c2Cl)c(-c2ccnc(N)n2)s1 [Example 259, N-{3-[5-(2-amino-4-pyrimidinyl)-2-(1,1-dimethylethyl)-1,3-thiazol-4-yl]-2-chlorophenyl}-2-furansulfonamide] | < 100 nM | < 100 nM | ≤ 3.16 nM |  |  |  |  | 
7 | CC(C)c1nc(-c2cccc(NS(=O)(=O)c3cc(F)ccc3F)c2F)c(-c2ccnc(NCCNS(C)(=O)=O)n2)s1 [Example 191] | < 100 nM | < 100 nM | ≤ 3.16 nM | < 100 nM | < 100 nM | < 100 nM |  | 
8 | CC(C)c1nc(-c2ccc(F)c(NS(=O)(=O)c3c(F)cccc3F)c2)c(-c2ccnc(NCCCCN(C)C)n2)s1 [Example 167] | 1000 to 10000 nM | 100 to 1000 nM | 31.6 to 1000 nM | > 1000 nM | 100 to 1000 nM |  |  | 
9 | CC(C)CNc1nccc(-c2sc(N(C)C)nc2-c2cccc(NS(=O)(=O)c3c(F)cccc3F)c2)n1 [Example 113, N-[3-(2-(Dimethylamino)-5-{2-[(2-methylpropyl)amino]-4-pyrimidinyl}-1,3-thiazol-4-yl)phenyl]-2,6-difluorobenzenesulfonamide] | 100 to 1000 nM | 100 to 1000 nM | 31.6 to 1000 nM |  |  | < 100 nM |  | 
10 | CCOCCNc1nccc(-c2sc(C(C)C)nc2-c2ccc(F)c(NS(=O)(=O)c3c(F)cccc3F)c2)n1 [Example 4, N-{5-[5-(2-{[2-(Ethyloxy)ethyl]amino}-4-pyrimidinyl)-2-(1-methylethyl)-1,3-thiazol-4-yl]-2-fluorophenyl}-2,6-difluorobenzenesulfonamide] | 100 to 1000 nM | 1000 to 10000 nM | 31.6 to 1000 nM | 100 to 1000 nM | 100 to 1000 nM | < 100 nM |  | 
11 | Cc1ccccc1S(=O)(=O)Nc1cccc(-c2nc(C(C)C)sc2-c2ccnc(NCC(C)C)n2)c1F [Example 39, N-[2-Fluoro-3-(2-(1-methylethyl)-5-{2-[(2-methylpropyl)amino]-4-pyrimidinyl}-1,3-thiazol-4-yl)phenyl]-2-methylbenzenesulfonamide] | 100 to 1000 nM | 100 to 1000 nM |  | 100 to 1000 nM | 100 to 1000 nM | < 100 nM | 3.16 to 31.6 nM | 
12 | CC(C)CNc1nccc(-c2sc(C(C)(C)C)nc2-c2cccc(NS(=O)(=O)c3c(F)cccc3F)c2Cl)n1 [Example 19, N-[2-Chloro-3-(2-(1,1-dimethylethyl)-5-{2-[(2-methylpropyl)amino]-4-pyrimidinyl}-1,3-thiazol-4-yl)phenyl]-2,6-difluorobenzenesulfonamide] | < 100 nM | < 100 nM |  | < 100 nM | < 100 nM | < 100 nM | 3.16 to 31.6 nM | 
13 | CC(C)c1nc(-c2cccc(NS(=O)(=O)N3CCOCC3)c2)c(-c2ccnc(NCCS(C)(=O)=O)n2)s1 [Example 37, N-{3-[2-(1-Methylethyl)-5-(2-{[2-(methylsulfonyl)ethyl]amino}-4-pyrimidinyl)-1,3-thiazol-4-yl]phenyl}-4-morpholinesulfonamide trifluoroacetic acid salt] | 100 to 1000 nM | 100 to 1000 nM | 31.6 to 1000 nM | 100 to 1000 nM | 100 to 1000 nM | 100 to 1000 nM |  | 
14 | CC(C)(C)c1nc(-c2cccc(NS(=O)(=O)c3ccccc3F)c2F)c(-c2ccncn2)s1 [Example 224, N-{3-[2-(1,1-dimethylethyl)-5-(4-pyrimidinyl)-1,3-thiazol-4-yl]-2-fluorophenyl}-2-fluorobenzenesulfonamide] | < 100 nM | < 100 nM | ≤ 3.16 nM |  |  |  |  | 
15 | CC(C)c1nc(-c2cccc(NS(=O)(=O)c3cc(F)ccc3F)c2F)c(-c2ccnc(NCCCN3CCCC3=O)n2)s1 [Example 185] | < 100 nM | < 100 nM | ≤ 3.16 nM | < 100 nM | < 100 nM | < 100 nM |  | 
16 | CC(C)c1nc(-c2ccc(F)c(NS(=O)(=O)c3cc(F)ccc3F)c2)c(-c2ccnc(NC3CC(C)(C)N(C)C(C)(C)C3)n2)s1 [Example 132] | 100 to 1000 nM | 100 to 1000 nM | ≤ 3.16 nM | 100 to 1000 nM | 100 to 1000 nM | < 100 nM |  | 
17 | CC(C)(C)c1nc(-c2c(F)ccc(NS(=O)(=O)c3cccc(F)c3)c2F)c(-c2ccncn2)s1 [Example 221, N-{3-[2-(1,1-dimethylethyl)-5-(4-pyrimidinyl)-1,3-thiazol-4-yl]-2,4-difluorophenyl}-3-fluorobenzenesulfonamide] | < 100 nM | < 100 nM | ≤ 3.16 nM |  |  |  |  | 
18 | CNc1nccc(-c2sc(C(C)C)nc2-c2ccc(F)c(NS(=O)(=O)c3c(F)cccc3F)c2)n1 [Example 119] | 1000 to 10000 nM |  | 31.6 to 1000 nM | > 1000 nM | > 1000 nM | 100 to 1000 nM |  | 
19 | CC(=O)NCCNc1nccc(-c2sc(C(C)(C)C)nc2-c2cccc(NS(=O)(=O)c3cc(F)ccc3F)c2F)n1 [Example 197] | < 100 nM | < 100 nM | ≤ 3.16 nM | < 100 nM | < 100 nM | < 100 nM |  | 
20 | CC(C)c1nc(-c2ccc(F)c(NS(=O)(=O)c3c(F)cccc3F)c2)c(-c2ccnc(NCCN3CCS(=O)(=O)CC3)n2)s1 [Example 175] | 100 to 1000 nM | 100 to 1000 nM | 31.6 to 1000 nM | 100 to 1000 nM | 100 to 1000 nM | < 100 nM |  | 
21 | CC(C)c1nc(-c2ccc(F)c(NS(=O)(=O)c3c(F)cccc3F)c2)c(-c2ccnc(NCCCN(C)C)n2)s1 [Example 163] |  | 1000 to 10000 nM |  | > 1000 nM | > 1000 nM |  |  | > 1000 nM
22 | Cc1nccc(-c2sc(C(C)(C)C)nc2-c2cccc(NS(=O)(=O)c3ccccc3F)c2F)n1 [Example 225, N-{3-[2-(1,1-dimethylethyl)-5-(2-methyl-4-pyrimidinyl)-1,3-thiazol-4-yl]-2-fluorophenyl}-2-fluorobenzenesulfonamide] | < 100 nM | < 100 nM |  |  |  |  | 3.16 to 31.6 nM | 
23 | CC(C)c1nc(-c2ccc(F)c(NS(=O)(=O)c3c(F)cccc3F)c2)c(-c2ccnc(NCCO)n2)s1 [Example 160] | 100 to 1000 nM | 100 to 1000 nM | 31.6 to 1000 nM | 100 to 1000 nM | 100 to 1000 nM | 100 to 1000 nM |  | 
24 | Cc1nccc(-c2sc(C(C)(C)C)nc2-c2cccc(NS(=O)(=O)c3ccco3)c2Cl)n1 [Example 263, N-{2-chloro-3-[2-(1,1-dimethylethyl)-5-(2-methyl-4-pyrimidinyl)-1,3-thiazol-4-yl]phenyl}-2-furansulfonamide] | 100 to 1000 nM | 100 to 1000 nM | ≤ 3.16 nM |  |  |  |  | 
